Each compound was assayed against T1, VEGFR/KDR (Homo sapiens, UniProt P35968) (assay: VEGFR/KDR kinase inhibition, DELFIA assay). Settings: ATP 0.6 uM (2x Km), enzyme 5 nM.
T1 construct: made in house; host or cells: Sf9 cells (Spodoptera frugiperda), baculovirus
Format: biochemical
How it was run: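 DELFIA time-resolved fluorescence readout using Europium-tagged anti-phosphotyrosine antibody after EDTA stop. Kinase reaction on plate-bound poly(Glu4,Tyr) ran 10-30 min at 30° C with 5 nM enzyme and 0.6 uM ATP (2× Km), following 4 min on-ice pre-incubation with compound; IC50 over a concentration range.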

T1 sequence (P35968 806-1356): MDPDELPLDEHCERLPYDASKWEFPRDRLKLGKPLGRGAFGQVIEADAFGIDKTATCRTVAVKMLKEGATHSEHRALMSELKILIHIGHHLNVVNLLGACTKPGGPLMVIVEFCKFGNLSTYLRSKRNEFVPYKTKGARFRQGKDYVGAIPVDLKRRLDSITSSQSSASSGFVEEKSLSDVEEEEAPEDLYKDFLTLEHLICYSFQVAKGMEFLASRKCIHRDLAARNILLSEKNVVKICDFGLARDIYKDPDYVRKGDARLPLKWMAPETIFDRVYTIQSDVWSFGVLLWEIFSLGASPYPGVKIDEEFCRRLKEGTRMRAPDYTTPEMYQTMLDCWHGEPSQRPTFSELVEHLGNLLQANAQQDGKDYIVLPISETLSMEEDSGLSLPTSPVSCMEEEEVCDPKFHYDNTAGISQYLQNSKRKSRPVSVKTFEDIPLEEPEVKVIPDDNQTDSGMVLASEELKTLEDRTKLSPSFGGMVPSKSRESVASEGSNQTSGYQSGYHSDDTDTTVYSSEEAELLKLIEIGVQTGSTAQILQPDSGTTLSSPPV

IC50, < 0.05 µM:
O=C(Nc1ccc(Oc2ccnc3cc(-c4cn(CC(=O)N5CCCCC5)nn4)sc23)c(F)c1)NC1CC1 [Compound 372, 1-cyclopropyl-3-(3-fluoro-4-(2-(1-(2-oxo-2-(piperidin-1-yl)ethyl)-1H-1,2,3-triazol-4-yl)thieno[3,2-b]pyridin-7-yloxy)phenyl)urea]
O=C(Nc1ccc(Oc2ccnc3cc(-c4cn(CC(=O)N5CCCC5)nn4)sc23)c(F)c1)NC1CC1 [Compound 373]
CCOC(=O)Cc1csc(NC(=O)Cn2cc(-c3cc4nccc(Oc5ccc(NC(=O)NC6CC6)cc5F)c4s3)nn2)n1 [Compound 375]
CN(C)[C@H]1CCN(C(=O)Cn2cc(-c3cc4nccc(Oc5ccc(NC(=O)NC6CC6)cc5F)c4s3)nn2)C1 [Compound 376]
O=C(Nc1ccc(Oc2ccnc3cc(-c4cn(CCC(=O)N5CCOCC5)nn4)sc23)c(F)c1)NC1CC1 [Compound 377]
CN1CCN(C(=O)CCn2cc(-c3cc4nccc(Oc5ccc(NC(=O)NC6CC6)cc5F)c4s3)nn2)CC1 [Compound 378]
O=C(Nc1ccc(Oc2ccnc3cc(-c4cn(CCC(=O)N5CCCCC5)nn4)sc23)c(F)c1)NC1CC1 [Compound 379]
O=C(Nc1ccc(Oc2ccnc3cc(-c4cn(CCC(=O)N5CCCC5)nn4)sc23)c(F)c1)NC1CC1 [Compound 380]
O=C(Cn1cc(-c2cc3nccc(Oc4ccc(NC(=O)NC5CC5)cc4F)c3s2)nn1)NCc1cccnc1 [Compound 381]
CC(C)(C)OC(=O)NC1CCN(C(=O)Cn2cc(-c3cc4nccc(Oc5ccc(NC(=O)NC6CC6)cc5F)c4s3)nn2)C1 (stereo not shown) [Compound 382]
O=C(Cn1cc(-c2cc3nccc(Oc4ccc(NC(=O)NC5CC5)cc4F)c3s2)nn1)NCc1ccccn1 [Compound 383]
CN(C)CCCn1cc(-c2cc3nccc(Oc4ccc(NC(=O)NC5CC5)cc4F)c3s2)nn1 [Compound 384]
O=C(Nc1ccc(Oc2ccnc3cc(-c4cn(CCCN5CCOCC5)nn4)sc23)c(F)c1)NC1CC1 [Compound 385]
CC(C)(C)OC(=O)NC1CCN(C(=O)Cn2cc(-c3cc4nccc(Oc5ccc(NC(=O)NC6CC6)cc5F)c4s3)nn2)CC1 [Compound 387]
CC(C)(C)OC(=O)N1CCN(C(=O)Cn2cc(-c3cc4nccc(Oc5ccc(NC(=O)NC6CC6)cc5F)c4s3)nn2)CC1 [Compound 388]
O=C(Nc1ccc(Oc2ccnc3cc(-c4cn(CC(=O)N5CCNCC5)nn4)sc23)c(F)c1)NC1CC1 [Compound 389, 1-Cyclopropyl-3-(3-fluoro-4-(2-(1-(2-oxo-2-(piperazin-1-yl)ethyl)-1H-1,2,3-triazol-4-yl)thieno[3,2-b]pyridin-7-yloxy)phenyl)urea]
CC(=O)OCC(=O)N1CCN(C(=O)Cn2cc(-c3cc4nccc(Oc5ccc(NC(=O)NC6CC6)cc5F)c4s3)nn2)CC1 [Compound 390]
O=C(Nc1ccc(Oc2ccnc3cc(-c4cn(CC(=O)N5CCN(C(=O)CO)CC5)nn4)sc23)c(F)c1)NC1CC1 [Compound 391]
CC(C)(C)OC(=O)NCC(=O)N1CCN(C(=O)Cn2cc(-c3cc4nccc(Oc5ccc(NC(=O)NC6CC6)cc5F)c4s3)nn2)CC1 [Compound 392]
CCNC(=O)N1CCN(C(=O)Cn2cc(-c3cc4nccc(Oc5ccc(NC(=O)NC6CC6)cc5F)c4s3)nn2)CC1 [Compound 394]
NC1CCN(C(=O)Cn2cc(-c3cc4nccc(Oc5ccc(NC(=O)NC6CC6)cc5F)c4s3)nn2)CC1 [Compound 395]
O=C(Nc1ccc(Oc2ccnc3cc(-c4ccc(C(=O)N5CCN(CCOCCO)CC5)cn4)sc23)c(F)c1)NC1CC1 [Compound 396]
CN(C(=O)OC(C)(C)C)C1CCN(C(=O)c2ccc(-c3cc4nccc(Oc5ccc(NC(=O)NC6CC6)cc5F)c4s3)nc2)CC1 [Compound 397]
CNC1CCN(C(=O)c2ccc(-c3cc4nccc(Oc5ccc(NC(=O)NC6CC6)cc5F)c4s3)nc2)CC1 [Compound 399]
NC1CCN(C(=O)c2ccc(-c3cc4nccc(Oc5ccc(NC(=O)NC6CC6)cc5F)c4s3)nc2)CC1 [Compound 400]
CNC1CCN(Cc2ccc(-c3cc4nccc(Oc5ccc(NC(=O)NC6CC6)cc5F)c4s3)nc2)CC1 [Compound 401]
NC1CN(Cc2ccc(-c3cc4nccc(Oc5ccc(NC(=O)NC6CC6)cc5F)c4s3)nc2)C1 [Compound 402]
O=C(Nc1ccc(Oc2ccnc3cc(-c4ccc(COC5CNC5)cn4)sc23)c(F)c1)NC1CC1 [Compound 405, 1-(4-(2-(5-((Azetidin-3-yloxy)methyl)pyridin-2-yl)thieno[3,2-b]pyridin-7-yloxy)-3-fluorophenyl)-3-cyclopropylurea]
CCNC(=O)N(C)C1CCN(C(=O)c2ccc(-c3cc4nccc(Oc5ccc(NC(=O)NC6CC6)cc5F)c4s3)nc2)CC1 [Compound 406]
CCNC(=O)N(C)C1CCN(Cc2ccc(-c3cc4nccc(Oc5ccc(NC(=O)NC6CC6)cc5F)c4s3)nc2)CC1 [Compound 407]
CCNC(=O)NC1CN(Cc2ccc(-c3cc4nccc(Oc5ccc(NC(=O)NC6CC6)cc5F)c4s3)nc2)C1 [Compound 408]
CCNC(=O)N1CC(OCc2ccc(-c3cc4nccc(Oc5ccc(NC(=O)NC6CC6)cc5F)c4s3)nc2)C1 [Compound 409]
CNC(=O)N(C)C1CCN(Cc2ccc(-c3cc4nccc(Oc5ccc(NC(=O)NC6CC6)cc5F)c4s3)nc2)CC1 [Compound 410]
CC(=O)OCC(=O)N(C)C1CCN(Cc2ccc(-c3cc4nccc(Oc5ccc(NC(=O)NC6CC6)cc5F)c4s3)nc2)CC1 [Compound 411]
C=CC(=O)N(C)C1CCN(Cc2ccc(-c3cc4nccc(Oc5ccc(NC(=O)NC6CC6)cc5F)c4s3)nc2)CC1 [Compound 412]
CN(C(=O)CO)C1CCN(Cc2ccc(-c3cc4nccc(Oc5ccc(NC(=O)NC6CC6)cc5F)c4s3)nc2)CC1 [Compound 413]
O=C(CO)NC1CN(Cc2ccc(-c3cc4nccc(Oc5ccc(NC(=O)NC6CC6)cc5F)c4s3)nc2)C1 [Compound 414]
COCCN(C)C1CCN(Cc2ccc(-c3cc4nccc(Oc5ccc(NC(=O)NC6CC6)cc5F)c4s3)nc2)CC1 [Compound 416]
CN(CCO)C1CCN(Cc2ccc(-c3cc4nccc(Oc5ccc(NC(=O)NC6CC6)cc5F)c4s3)nc2)CC1 [Compound 417]
COCCOCCOCCOCCN(C)C1CCN(Cc2ccc(-c3cc4nccc(Oc5ccc(NC(=O)NC6CC6)cc5F)c4s3)nc2)CC1 [Compound 418]

— patent US8906852B2 (MethylGene Inc., priority 2010, dated 2014)
